Experimental findings from US10287313B2, “RNA monomers containing 0-acetal levulinyl ester groups and their use in RNA microarrays” (THE ROYAL INSTITUTION FOR THE ADVANCEMENT OF …, priority 2008, dated 2019) are described below.

A short description of data set [1]: Tm of 21-nt RNAs synthesized from various chemistries. It is filed as physicochemical. The settings on record: base sequence r(GCUUGAAGUCUUUAAUUAA)-d(TT).
For a further data set, the system named is luciferase mRNA. As to the kind of experiment: RNAi assay that targets luciferase mRNA (luciferase gene knockdown by siRNA duplexes). Format: cell-based. The settings on record: antisense strand annealed to common sense strand synthesized via 2′-TBDMS chemistry; light units relative to Renilla control; compared with TBDMS, TOM and ACE derived duplexes. An excerpt: The fully deprotected antisense strands were synthesized by TBDMS, TOM, ACE and ALE chemistries, whereas the complementary sense strand of the siRNA duplex was synthesized by TBDMS chemistry.
As a final check, we evaluated the activity of all RNAs synthesized in an RNAi assay that targets luciferase mRNA (Dowler, T. et al. Nucleic Acids Res 2006, 34, 1669-75). Each of the antisense strands prepared by the various chemistries were allowed to anneal to a common sense strand synthesized via 2′-TBDMS chemistry.

In the oligonucleotide strings, read from the 5' end, every base follows the letter of its sugar. An asterisk marks phosphorothioate; unmarked linkages are phosphodiester. Other units and linkages are bracketed, terminal groups are in braces. A string of capitals states the bases alone. d = 2'-deoxy (DNA); r = 2'-OH (RNA)

“r(GCUUGAAGUCUUUAAUUAA)-d(TT) [TOM] (antisense rGrCrUrUrGrArArGrUrCrUrUrUrArArUrUrArAdTdT) [21-nt antisense siRNA strand synthesized from 2′-O-TOM chemistry]”: in data set [1], the Tm came to 60.1 °C.

Take “r(GCUUGAAGUCUUUAAUUAA)-d(TT) [ALE] (antisense rGrCrUrUrGrArArGrUrCrUrUrUrArArUrUrArAdTdT) [21-nt antisense siRNA strand synthesized from 2′-O-ALE chemistry]”: the Tm in data set [1] was 59.4 °C. The “gene silencing activity (luciferase gene knockdown)” value in the data set with luciferase mRNA is recorded as “same gene silencing activity”.

Consider “r(GCUUGAAGUCUUUAAUUAA)-d(TT) [ACE] (antisense rGrCrUrUrGrArArGrUrCrUrUrUrArArUrUrArAdTdT) [21-nt antisense siRNA strand from 2′-O-ACE chemistry, crude RNA purchased from Dharmacon]”, for which the Tm in data set [1] amounted to 59.5 °C.

Take “r(GCUUGAAGUCUUUAAUUAA)-d(TT) [TBDMS] (RNA, 3' dTdT, backbone not given here) [21-nt antisense siRNA strand synthesized from 2′-O-TBDMS chemistry]”: the Tm in data set [1] is 59.8 °C.
